Results as given in patent US9150583B2 (Boehringer Ingelheim International GmbH, priority 2011, dated 2015).
pIC50: −log10 of the molar value.

Assays:
[1] = target: Recombinant human CETP (Homo sapiens (Human), UniProt P11597); experiment: CETP in vitro assay (fluorometric, Roar Biomedical); format: biochemical; settings: 3 hours at 37° C., compound concentrations between 1 nM and 30 μM, read-out: IC50 values for inhibition of CETP
Experimental: CETP inhibitory activity of compounds of the present invention can be determined in a fluorometric assay purchased from Roar Biomedical, Inc. (New York, N.Y., USA). […] Recombinant human CETP was partially purified from medium conditioned by CETP expressing CHO cells. In a 384 well format 2.5 μl of compound solution in DMSO was combined with 2 μl of donor solution, 2 μl of acceptor solution and 0.8 μl of recombinant human CETP solution in a total volume of 100 μl with assay buffer and incubated for 3 hours at 37° C. The fluorescence intensity was measured at excitation wavelength of 485 nm and emission wavelength of 535 nm. IC50 values are calculated from dose effect curves from compound concentrations between 1 nM and 30 μM.

[2] = Assay for metabolic degradation; format: in vitro ADME; settings: pH 7.6; pooled human liver microsomes, 37° C., microsomal protein 1 mg/ml, test compound 1 μM, NADPH 1 mM; read-out: half-life (t½) values for human liver microsomal metabolic degradation
Experimental: Assay for Metabolic Degradation
The metabolic degradation of the test compound is assayed at 37° C. with pooled human liver microsomes. The final incubation volume of 100 μl per time point contains TRIS buffer pH 7.6 at room temperature (0.1 M), magnesium chloride (5 mM), microsomal protein (1 mg/ml) and the test compound at a final concentration of 1 μM.
Following a short preincubation period at 37° C., the reactions were initiated by addition of beta-nicotinamide adenine dinucleotide phosphate, reduced form (NADPH, 1 mM) and terminated by transferring an aliquot into solvent after different time points. Additionally, the NADPH-independent degradation was monitored in incubations without NADPH, terminated at the last time point. The quenched incubations are pelleted by centrifugation (10000 g, 5 min). An aliquot of the supernatant is assayed by LC-MS/MS for the amount of parent compound. The half-life (t ½) is determined by the slope of the semilogarithmic plot of the concentration-time profile.

Sequence of Recombinant human CETP (P11597 18-493): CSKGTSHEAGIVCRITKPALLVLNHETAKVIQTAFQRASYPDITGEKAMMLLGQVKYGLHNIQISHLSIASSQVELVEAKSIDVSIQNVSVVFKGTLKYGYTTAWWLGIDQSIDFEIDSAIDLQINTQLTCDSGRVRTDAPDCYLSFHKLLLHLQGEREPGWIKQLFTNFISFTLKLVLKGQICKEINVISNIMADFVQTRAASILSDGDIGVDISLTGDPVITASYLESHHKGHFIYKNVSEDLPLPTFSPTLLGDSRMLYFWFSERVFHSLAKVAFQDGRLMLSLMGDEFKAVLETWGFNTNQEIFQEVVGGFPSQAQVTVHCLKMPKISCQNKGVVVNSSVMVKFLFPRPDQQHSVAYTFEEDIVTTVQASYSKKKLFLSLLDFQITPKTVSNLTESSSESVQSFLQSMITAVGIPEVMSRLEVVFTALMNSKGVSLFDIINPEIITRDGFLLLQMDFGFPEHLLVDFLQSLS

Structure (SMILES)	pIC50 [1]	half-life at 1 μM [2] [h]
CC(C)c1nc2c(c3c1[C@@H](c1ccc(C(F)(F)F)cc1)OC31CCOCC1)[C@@H](O)CC1(CC1)C2 [Example 1, (3R,9S)-4-isopropyl-7,7-(ethan-1,2-diyl)-3-(4-(trifluoromethyl)phenyl)-2′,3′,5′,6,6′,7,8,9-octahydro-3H-spiro[furo[3,4-c]quinoline-1,4′-pyran]-9-ol]	7.82	> 2.17
CC(C)c1nc2c(c3c1[C@@H](c1ccc(C(F)(F)F)c(C#N)c1)OC31CCOCC1)[C@@H](O)CC1(CC1)C2 [Example 2]	7.74	> 2.17
COc1cc([C@H]2OC3(CCOCC3)c3c2c(C(C)C)nc2c3[C@@H](O)CC3(CC3)C2)ccc1C(F)(F)F [Example 3, (3R,9S)-4-isopropyl-7,7-(ethan-1,2-diyl)-3-(3-methoxy-4-(trifluoromethyl)phenyl)-2′,3,5′,6,6,7,8,9-octahydro-3H-spiro[furo[3,4-c]quinoline-1,4′-pyran]-9-ol]	7.96	
CC(C)c1nc2c(c3c1[C@@H](c1ccc(C(F)(F)F)nc1)OC31CCOCC1)[C@@H](O)CC1(CC1)C2 [Example 4]	7.05	
CC(C)c1nc2c(c3c1[C@@H](c1ccc(C(F)(F)F)cc1)OC31CCOCC1)[C@@H](O)CC1(CC1)[C@H]2O [Example 5, (3R,6R,9S)-4-isopropyl-7,7-(ethan-1,2-diyl)-3-(4-(trifluoromethyl)phenyl)-2′,3′,5′,6,6′,7,8,9-octahydro-3H-spiro[furo[3,4-c]quinoline-1,4′-pyran]-6,9-diol]	8.05	0.95
CC(C)c1nc2c(c3c1[C@@H](c1ccc(C(F)(F)F)c(C#N)c1)OC31CCOCC1)[C@@H](O)CC1(CC1)[C@H]2O [Example 6, 5-((3R,6R,9S)-6,9-dihydroxy-4-isopropyl-7,7-(ethan-1,2-diyl)-2′,3′,5′,6,6′,7,8,9-octahydro-3H-spiro[furo[3,4-c]quinoline-1,4′-pyran]-3-yl)-2-(trifluoromethyl)benzonitrile]	7.37	
COc1cc([C@H]2OC3(CCOCC3)c3c2c(C(C)C)nc2c3[C@@H](O)CC3(CC3)[C@H]2O)ccc1C(F)(F)F [Example 7, (3R,6R,9S)-4-isopropyl-7,7-(ethan-1,2-diyl)-3-(3-methoxy-4-(trifluoromethyl)phenyl)-2′,3′,5′,6,6′,7,8,9-octahydro-3H-spiro[furo[3,4-c]quinoline-1,4′-pyran]-6,9-diol]	7.96	
CC(C)c1nc2c(c3c1[C@@H](c1ccc(C(F)(F)F)nc1)OC31CCOCC1)[C@@H](O)CC1(CC1)[C@H]2O [Example 8, (3R,6R,9S)-4-isopropyl-7,7-(ethan-1,2-diyl)-3-(6-(trifluoromethyl)pyridin-3-yl)-2′,3′,5′,6,6′,7,8,9-octahydro-3H-spiro[furo[3,4-c]quinoline-1,4′-pyran]-6,9-diol]		> 2.17
